Like-named read-outs stand apart in the source and are kept apart here.
Key:
[1] = molecular target: Recombinant human His-tagged Kat6a protein (amino acids 194-810) (Homo sapiens (Human), UniProt Q92794); test: Kat6a activity assay (TR-FRET, acetylation of biotinylated Histone-H4-derived peptide); format: biochemical; conditions: 60 mins at 22° C., read-out: KAT6A-DPF/HAT domain IC50 [mol/l] (arithmetic mean)
From the text: Kat6a inhibitory activities of the compounds described in the present invention were quantified using a Fluorescence Resonance Energy Transfer (TR-FRET) assay which measures acetylation of a synthetic, biotinylated Histone-H4-derived peptide by the enzyme.
Recombinant human His-tagged Kat6a protein (amino acids 194-810), was purified in-house from Baculovirus-infected insect cells (Sf9). Histone H4 peptide (amino acids 1-24, […]-VLRD-K(Btn)-amide), which was used as substrate, was synthesized by Biosyntan GmbH, Berlin, Germany. Acetyl Coenzyme A was purchased from Sigma-Aldrich (#A-2056).
Kat6a was incubated for 60 mins at 22° C. in the presence of different concentrations of test substances (0 μM, and within the range 0.01-20 μM) in assay buffer [25 mM Tris/HCl pH 8, 1 mM EGTA, 2.5 mM Glutathion, 0.02% Chicken Albumin, 0.05% Pluronic F127, 25 mM NaCl, 220 nM H4 peptide and 600 nM Acetyl Coenzym A].
The reaction was stopped by addition of Detection Solution (25 mM HEPES pH 7.5, 0.1% BSA, 22 nM SAXL665 (Cisbio #610SAXLE), 100 μM Anacardic Acid (Enzo #ALX-270-381), 1 nM Anti-Histone H4 (ACETYL K8) Antibody (ABCAM #AB15823) and 0.5 nM Anti-Rabbit IgG Eu (Perkin Elmer #AD0083).
The fluorescence emission at 620 nm and 665 nm after excitation at 330-350 nm was measured in a TR-FRET measuring instrument, for instance a Rubystar or a Pherastar (both from BMG Lab Technologies, Offenburg, Germany) or a Viewlux (Perkin-Elmer). The ratio of the emission at 665 nm and at […] was used as indicator of the amount of acetylated peptide.
The resulting data (ratio) were normalized, taking 0% inhibition as the mean value of control measurements where all reagents were included. In this case 50 nl DMSO were used instead of compounds. […] IC50 values were determined by regression analysis based on a 4 parameter equation (minimum, maximum, ICM, Hill; Y=Max+(Min−Max)/(1+(X/ICso) Hill) using the Screener Software (Genedata).
Table 5 depicts the IC50 values of selected examples in biochemical KAT6A and KAT6B3 assays.

ZR-75-1 cells = test: Proliferation assay ZR-75-1 (Alamar Blue, 144 h); format: cell-based; conditions: arithmetic mean, read-out: ZR75-1 proliferation assay, EC50 [M] (arithmetic mean)
From the text: Proliferation Assays for Compound Characterization
For compound characterization cell survival assays were routinely run in two cell lines. ZR-75-1 is a breast carcinoma cell line containing a focal KAT6A amplification and high KAT6A protein expression. Proliferation of this cell line is inhibited upon treatment with KAT6A inhibitors. As a negative control cell line MDA-MB-436 were used. These cells carry a […] deletion of the KAT6A gene, have a low KAT6A protein expression and are not growth inhibited upon treatment with KAT6A inhibitors.
For measurements cell lines were plated at the below indicated concentration per […] in 96-well plates in a humidified incubator at 37° C. and 5% CO2.
ZR-75-1 (ATCC, CRL-1500; breast carcinoma); 3000 cells per well; culture medium: RPMI 1640 (Biochrom #FG 1215) medium containing 2.5% FBS (Biochrom #S0615).
24 hours later, cells were treated with compounds (stock solution, 10 mM in DMSO) using the HP D300 Digital Dispenser in a concentration range of 2.0×10E-5 M to 2.0×10E-9 M in a single-dot curve with 9 dilutions and a DMSO concentration of 0.2%. Each sample was prepared as triplicate and rim wells were excluded. Plates were incubated at 37° C. and 5% CO2 for 144 h. Cell viability was measured by adding 10 μL of Alamar Blue Reagent (Invitrogen #DAL 1100) and plates were incubated for 2 h at 37° C. and 5% CO2. Fluorescence was measured at 590 nm wavelength with a Tecan Spark or Victor X3 MTP-Reader (PerkinElmer).

[2] = system: ESR1 transcription (luciferase signal in MVLN cells); test: Repression of ESR1 transcription, luciferase reporter in MVLN cells; format: cell-based; conditions: inhibition of luciferase signal in MVLN cells, arithmetic mean
From the text: Repression of ESR1 Transcription Upon Treatment of Cells with Compounds
KAT6A controls transcription of the ESR1 gene in breast cancer cells. Compound treatment that interferes with this mechanism was quantified using MVLN cells. These cells constitutively express the ER and are stably transfected with the luciferase (LUC) reporter gene and the corresponding hormone responsive element derived from the 5′-flanking region of the Xenopus Vitellogenin A2 gene (Pons et al., 1990, Demirpense et al., 1993, Joyeux et al., 1993). The repressive effect on ERα transcription activity of a test chemical is directly related to the luciferase measured in the lysate of treated MVLN cells.
Each sample was prepared as duplicate and rim wells were excluded. For luciferase signal determination 100 μl of a 1:1 mixture of Steadylite plus (Perkin Elmer; 6016759) and assay medium was added after 24 h for 15 minutes and measured in Victor X3 (Perkin Elmer). To exclude any effects caused by cell loss during the treatment, cell density was determined using Alamar Blue (Invitrogen; DAL1100). Prior to the luciferase measurement 10 μl Alamar Blue were added to each well and the plates were incubated for 2 h in the incubator. Then fluorescence was measured with Victor X3 (Perkin Elmer) at 530 nm/590 nm.

Chain of Recombinant human His-tagged Kat6a protein (amino acids 194-810) (Q92794 194-810): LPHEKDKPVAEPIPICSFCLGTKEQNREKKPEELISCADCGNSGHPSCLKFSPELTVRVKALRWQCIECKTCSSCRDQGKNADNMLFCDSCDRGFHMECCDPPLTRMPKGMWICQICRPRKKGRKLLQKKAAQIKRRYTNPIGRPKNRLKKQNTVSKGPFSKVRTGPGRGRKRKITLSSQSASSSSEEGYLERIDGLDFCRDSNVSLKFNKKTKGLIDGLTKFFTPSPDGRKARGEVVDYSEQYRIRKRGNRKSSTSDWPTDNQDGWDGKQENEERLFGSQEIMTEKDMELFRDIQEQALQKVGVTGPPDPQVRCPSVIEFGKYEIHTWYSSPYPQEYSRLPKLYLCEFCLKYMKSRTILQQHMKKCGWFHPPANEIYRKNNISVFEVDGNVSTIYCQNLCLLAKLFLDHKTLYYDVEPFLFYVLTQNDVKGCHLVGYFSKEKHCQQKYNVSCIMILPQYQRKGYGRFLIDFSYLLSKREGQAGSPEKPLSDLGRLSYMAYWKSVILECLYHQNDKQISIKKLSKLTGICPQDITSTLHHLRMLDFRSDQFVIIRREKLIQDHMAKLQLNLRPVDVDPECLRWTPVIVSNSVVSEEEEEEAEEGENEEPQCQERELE

Row | SMILES | IC50 [1] | IC50 ([2]; Homo sapiens, MVLN) | IC50 [2] | EC50 (ZR-75-1 cells; Homo sapiens, ZR-75-1, 144 h) | EC50 (ZR-75-1 cells)
1 | CN(C)c1ccc2cc(C(=O)NS(=O)(=O)c3ccccc3-c3ccccc3)oc2c1Br [Example 50, N-([Biphenyl]-2-ylsulfonyl)-7-bromo-6-(dimethylamino)-1-benzofuran-2-carboxamide] | 4230 nM | – | – | – | –
2 | CN(C)c1ccc2cc(C(=O)NS(=O)(=O)c3ccccc3-c3ccccc3)n(C)c2c1 [Example 210, N-([1,1′-Biphenyl]-2-sulfonyl)-6-(dimethylamino)-1-methyl-1H-indole-2-carboxamide] | 6660 nM | 11300 nM | – | > 2e-05 M | –
3 | CN(C)c1ccc2cc(C(=O)NS(=O)(=O)c3ccc([N+](=O)[O-])c4cccnc34)oc2c1 [Example 92, 6-(Dimethylamino)-N-(5-nitroquinoline-8-sulfonyl)-1-benzofuran-2-carboxamide] | 151 nM | 394 nM | – | 3.43e-07 M | –
4 | CCOC(=O)N1CCC(S(=O)(=O)NC(=O)c2cc3ccc(N(C)C)cc3o2)CC1 [Example 60, Ethyl-4-{[6-(dimethylamino)-1-benzofuran-2-carbonyl]sulfamoyl}piperidine-1-carboxylate] | 3200 nM | – | – | – | –
5 | CC(C)c1ccc(C(C)C)c(S(=O)(=O)NC(=O)c2cc3ccc(N(C)C)cc3o2)c1 [Example 162] | 366 nM | 2550 nM | – | > 2e-05 M | –
6 | CC(O)c1ccc(Cl)c(S(=O)(=O)NC(=O)c2cc3ccc(N(C)C)cc3o2)c1 (stereo not drawn) [Example 163] | 4350 nM | > 20000 nM | – | 9.38e-07 M | –
7 | CN(C)c1ccc2cc(C(=O)NS(=O)(=O)c3c(F)cccc3C3CCC3)oc2c1 [Example 158] | 684 nM | 1490 nM | – | 7.93e-06 M | –
8 | Cc1cnc(Cl)c(S(=O)(=O)NC(=O)c2cc3ccc(N(C)C)cc3o2)c1 [Example 154] | 3080 nM | 11500 nM | – | 7e-06 M | –
9 | CCOc1c(F)cccc1S(=O)(=O)NC(=O)c1cc2ccc(N(C)C)cc2o1 [Example 169, 6-(Dimethylamino)-N-(2-ethoxy-3-fluoro-phenyl)sulfonyl-benzofuran-2-carboxamide] | 335 nM | 340 nM | – | – | –
10 | CN(C)c1ccc2cc(C(=O)NS(=O)(=O)c3c(F)cccc3OCC3CC3)oc2c1 [Example 160] | 324 nM | 741 nM | – | 5.7e-06 M | –
11 | CN(C)c1ccc2cc(C(=O)NS(=O)(=O)c3ccccc3-c3ccccc3)oc2c1 [Example 226] | – | – | 180 nM | – | 2.46e-07 M
12 | CN(C)c1ccc2cc(C(=O)NS(=O)(=O)c3cc(C(F)(F)F)ccc3NCC(F)F)oc2c1 [Example 165] | 1290 nM | 5770 nM | – | 9.21e-06 M | –
13 | CN(C)c1ccc2cc(C(=O)NS(=O)(=O)c3cc(CO)ccc3OC(F)(F)F)oc2c1 [Example 161] | 6770 nM | > 20000 nM | – | > 2e-05 M | –
14 | CCOc1ccncc1S(=O)(=O)NC(=O)c1cc2ccc(N(C)C)cc2o1 [Example 58, 6-(Dimethylamino)-N-(4-ethoxypyridine-3-sulfonyl)-1-benzofuran-2-carboxamide] | 534 nM | – | – | – | –
15 | Cc1ccc2cccc(S(=O)(=O)NC(=O)c3cc4cc(C#N)c(N(C)C)cc4o3)c2n1 [Example 209, 5-Cyano-6-(dimethylamino)-N-(2-methylquinoline-8-sulfonyl)-1-benzofuran-2-carboxamide] | – | > 20000 nM | – | 9.4e-06 M | –
16 | CN(C)c1ccc2cc(C(=O)NS(=O)(=O)c3ccccc3C(F)(F)F)oc2c1 [Example 54, 6-(Dimethylamino)-N-[2-(trifluoromethyl)benzene-1-sulfonyl]-1-benzofuran-2-carboxamide] | 430 nM | – | – | – | –

Continued by falling IC50 [1], values first:

Row | IC50 [1] | IC50 ([2]; Homo sapiens, MVLN) | IC50 [2] | SMILES | EC50 (ZR-75-1 cells; Homo sapiens, ZR-75-1, 144 h) | EC50 (ZR-75-1 cells)
17 | 137 nM | 4230 nM | – | CCOc1ccccc1S(=O)(=O)NC(=O)c1cc2cc(C(F)(F)F)c(N(C)C)cc2o1 [Example 201, 6-(Dimethylamino)-N-(2-ethoxybenzene-1-sulfonyl)-5-(trifluoromethyl)-1-benzofuran-2-carboxamide] | 2.9e-06 M | –
18 | 129 nM | – | – | CN(C)c1ccc2cc(C(=O)NS(=O)(=O)c3ccccc3Br)oc2c1 [Example 18, N-(2-Bromobenzene-1-sulfonyl)-6-(dimethylamino)-1-benzofuran-2-carboxamide] | – | –
19 | 94.9 nM | 102 nM | – | CCOc1cc(F)ccc1S(=O)(=O)NC(=O)c1cc2ccc(N(C)C)cc2o1 [Example 171, 6-(Dimethylamino)-N-(2-ethoxy-4-fluoro-phenyl)sulfonyl-benzofuran-2-carboxamide] | – | –
20 | 86.4 nM | – | – | CC(c1ccc(Cl)cc1Cl)S(=O)(=O)NC(=O)c1cc2ccc(N(C)C)cc2o1 (racemic) [Example 55, N-[1-(2,4-Dichlorophenyl)ethanesulfonyl]-6-(dimethylamino)-1-benzofuran-2-carboxamide (rac)] | – | –
21 | 86.1 nM | – | – | CN(C)c1ccc2cc(C(=O)NS(=O)(=O)c3ccccc3O)oc2c1 [Example 59, 6-(Dimethylamino)-N-(2-hydroxybenzene-1-sulfonyl)-1-benzofuran-2-carboxamide] | – | –
22 | 67.6 nM | – | – | CC(c1c(Cl)cccc1Cl)S(=O)(=O)NC(=O)c1cc2ccc(N(C)C)cc2o1 (racemic) [Example 56, N-[1-(2,6-Dichlorophenyl)ethanesulfonyl]-6-(dimethylamino)-1-benzofuran-2-carboxamide (rac)] | – | –
23 | 40.6 nM | 226 nM | – | CC(Oc1cccc(OC2CCC2)c1S(=O)(=O)NC(=O)c1cc2ccc(N(C)C)cc2o1)C(F)(F)F (racemic) [Example 84, N-[2-(Cyclobutyloxy)-6-{[(2S)-1,1,1-trifluoropropan-2-yl]oxy}benzene-1-sulfonyl]-6-(dimethylamino)-1-benzofuran-2-carboxamide (rac)] | – | –
24 | 38.2 nM | – | – | CCOc1ccc(Br)cc1S(=O)(=O)NC(=O)c1cc2ccc(N(C)C)cc2o1 [Example 57, N-(5-Bromo-2-ethoxybenzene-1-sulfonyl)-6-(dimethylamino)-1-benzofuran-2-carboxamide] | – | –
25 | 11.8 nM | 123 nM | – | CCOc1ccc(Oc2ccccc2)cc1S(=O)(=O)NC(=O)c1cc2ccc(N(C)C)cc2o1 [Example 174, 6-(Dimethylamino)-N-(2-ethoxy-5-phenoxy-phenyl)sulfonyl-benzofuran-2-carboxamide] | – | –
26 | 2.29 nM | 8.63 nM | – | CCOc1ccc(C(C)C)cc1S(=O)(=O)NC(=O)c1cc2c(F)cc(N(C)C)cc2o1 [Example 107, 6-(Dimethylamino)-N-[2-ethoxy-5-(propan-2-yl)benzene-1-sulfonyl]-4-fluoro-1-benzofuran-2-carboxamide] | 4.49e-08 M | –

Source: patent US12357603B2, “Acyl sulfonamides for treating cancer” (Bayer Aktiengesellschaft, priority 2019, dated 2025)
